Results taken from patent US10705093B2, “Determination of small-molecule thiols and disulfides: protein bound cys and total cysteine as biomarkers of oxidative stress” (Bloodworks, priority 2014, dated 2020).

What was measured:
[1] = test system: Protein-ss-Cys in plasma from a normal donor; test: Protein-ss-Cys in plasma treated with two physiologically relevant oxidants; parameters: species or system human; settings: 37° C. for 30 min, with increasing oxidant concentration
Experimental: A. Cys containing species in normal donors' plasma (n=6); B. Plasma from a nomal donor treated with hydrogen peroxide (H2O2) and hypochlorous acid (HOCl), two oxidants commonly released from activated cells and neutrophils of patients with oxidative stress. Plasma was reaction with the indicated concentration at 37° C. for 30 min and followed by methanol extraction and analysis by LC-MS/MS-MRM as described in Example 1.

Cys disulfides in plasma = test: Cys and Cys disulfide changes in plasma from a patient with SCD before and after NAC infusion (LC-MS/MS-MRM)
[2] = test system: NAC, Cys species and GSH in plasma/whole blood/RBC; test: Time course of NAC, Cys containing species and GSH in plasma/whole blood from a patient with SCD before and after NAC treatment
[3] = after NAC infusion for 1 hr at 150 mg/kg vs baseline

SMILES	Change of Protein-ss-Cys in plasma exposed to oxidant [1]	NAC-ss-Cys mixed disulfide in plasma (Cys disulfides in plasma; after NAC infusion for 1 hr at 150 mg/kg)	Change of Cystine in plasma (Cys disulfides in plasma; [3])	Change of Protein-ss-Cys in plasma (Cys disulfides in plasma; [3])	Change of total Cys in plasma (Cys disulfides in plasma; [3])	Free Cys in plasma after NAC infusion (Cys disulfides in plasma; after NAC infusion for 1 hr at 150 mg/kg, baseline 7 μM)	NAC level in plasma ([2]; 24 hr time point)	Increase of GSH level ([2]; 24 hr time point compared to before treatment) [%]	Increase of free Cys in the red blood cell (RBC) fraction ([2]; RBC fraction, after NAC infusion vs before)	Free Cys in the red blood cell (RBC) fraction after NAC ([2]; RBC fraction, after NAC infusion, before 2.3 μM) [µM]	Change of free Cys in plasma ([2]; after NAC infusion vs Pre)	Change of p-ss-Cys ([2]; after NAC infusion vs Pre)	Change of total small molecular weight thiol (st-Cys) ([2]; after NAC infusion vs Pre)	NAC half time ([2]; inferred from the 24 hr level)	Fraction of NAC oxidized ([2]; plasma, at 1 hr (right after NAC infusion))	Free Cys in whole blood after NAC ([2]; whole blood, after NAC infusion, before 13 μM) [µM]
OO [H2O2, hydrogen peroxide]	increased	–	–	–	–	–	–	–	–	–	–	–	–	–	–	–
OCl [HOCl, hypochlorous acid]	increased	–	–	–	–	–	–	–	–	–	–	–	–	–	–	–
CC(=O)N[C@@H](CS)C(=O)O [NAC, N-Acetyl Cysteine]	–	Detection of NAC-ss-Cys	large decrease	large decrease	no significant changes	over 170 μM	almost not detectable	13	over 10 fold	31	greatly increased	decreased sharply	greatly increased	short	over 50%	170
